Measured values as given in patent publication US20240116985A1, “STAPLED PEPTIDES AND METHODS THEREOF” (priority 2020, published 2024).
Where two headings read alike, the source gives them in different places.

Columns and labels:
CHI Log D procedure = format: physicochemical; settings: for chromatographic logD: pH 7.4, CHI Log D; for CHI Log D: pH 7.4
[1] = molecular target: T1, full-length beta-Catenin (Uniprot ID P35222) (Homo sapiens, UniProt P35222); assay: Fluorescence polarization IC50 (beta-catenin / 5FAM-TCF4 10-53 competition); format: binding
T1 construct: 10 nM full-length beta-Catenin (Uniprot ID P35222)
T1 sequence (P35222 1-781): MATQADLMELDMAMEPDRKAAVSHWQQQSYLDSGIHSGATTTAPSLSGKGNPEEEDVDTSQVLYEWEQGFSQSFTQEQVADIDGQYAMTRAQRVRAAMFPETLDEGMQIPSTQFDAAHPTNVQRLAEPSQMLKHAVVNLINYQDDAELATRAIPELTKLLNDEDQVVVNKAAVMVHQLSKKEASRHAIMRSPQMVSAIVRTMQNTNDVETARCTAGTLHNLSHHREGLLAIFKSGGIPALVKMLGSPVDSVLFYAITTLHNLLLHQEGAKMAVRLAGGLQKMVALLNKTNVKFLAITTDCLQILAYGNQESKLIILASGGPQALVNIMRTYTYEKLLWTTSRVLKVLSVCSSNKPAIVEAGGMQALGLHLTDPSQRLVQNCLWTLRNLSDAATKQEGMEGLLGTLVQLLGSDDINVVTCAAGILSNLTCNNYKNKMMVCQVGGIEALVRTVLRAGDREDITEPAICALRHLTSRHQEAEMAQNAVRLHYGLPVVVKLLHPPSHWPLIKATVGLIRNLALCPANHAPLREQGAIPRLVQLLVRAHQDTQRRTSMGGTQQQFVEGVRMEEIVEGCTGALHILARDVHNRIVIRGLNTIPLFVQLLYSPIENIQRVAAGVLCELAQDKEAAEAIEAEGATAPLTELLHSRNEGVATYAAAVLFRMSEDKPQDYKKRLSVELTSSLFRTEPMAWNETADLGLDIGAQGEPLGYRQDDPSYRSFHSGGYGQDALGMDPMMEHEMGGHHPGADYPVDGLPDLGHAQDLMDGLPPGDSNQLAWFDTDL

[2] = Table E2-1, read-out: beta-Catenin FP IC50
[3] = fluorescence polarization, beta-catenin, read-out: FP EC50

Compound	chromatographic logD (CHI Log D procedure)	IC50 [1, 2] [µM]	CHI Log D (CHI Log D procedure)	IC50 [1, 3] [µM]
CC(=O)N1CCC[C@]12CC=CCCCC1(CCCC=CCCCCCC[C@@](C)(C(=O)N[C@@H](Cc3ccccc3)C(=O)N[C@@H](Cc3c[nH]c4c(F)cccc34)C(=O)N[C@@H](CCC(N)=O)C(N)=O)NC(=O)[C@H](C(C)C)NC(=O)[C@H](Cc3ccccc3)NC(=O)[C@H](C)NC(=O)[C@H](C)NC(=O)[C@H](CCC(=O)O)NC(=O)[C@H](CC(=O)O)NC1=O)NC(=O)[C@H](C)NC(=O)[C@H](CC(=O)O)NC2=O (stereo partly drawn) [I-166, Ac-PL3-Asp-Ala-B5-Asp-Glu-Ala-Ala-Phe-Val-S8-Phe-7FW-Gln-NH2]	2.06	2.16		
CC(=O)N1CCC[C@]12CC=CCCCC1(CCCC=CCCCCCC[C@@](C)(C(=O)N[C@@H](Cc3ccccc3)C(=O)N[C@@H](Cc3c[nH]c4ccccc34)C(=O)N[C@@H](CCC(N)=O)C(N)=O)NC(=O)[C@H](C(C)C)NC(=O)[C@H](Cc3ccccc3)NC(=O)[C@H](C)NC(=O)[C@H](C)NC(=O)[C@@H](CCC(=O)O)NC(=O)[C@H](CC(=O)O)NC1=O)NC(=O)[C@H](C)NC(=O)[C@H](CC(=O)O)NC2=O (stereo partly drawn) [I-182, Ac-PL3-Asp-Ala-B5-Asp-DGlu-Ala-Ala-Phe-Val-S8-Phe-Trp-Gln-NH2]	2.07	2.8		
CC(=O)N1CCC[C@]12CC=CCCCC1(CCCC=CCCCCCC[C@@](C)(C(=O)N[C@@H](Cc3ccccc3)C(=O)N[C@@H](Cc3ccc4ccccc4c3)C(=O)N[C@@H](CCC(N)=O)C(N)=O)NC(=O)[C@H](C(C)C)NC(=O)[C@H](Cc3ccc(F)c(F)c3)NC(=O)[C@H](C)NC(=O)[C@H](C)NC(=O)[C@H](CCC(=O)O)NC(=O)[C@H](CC(=O)O)NC1=O)NC(=O)[C@H](C)NC(=O)[C@H](CC(=O)O)NC2=O (stereo partly drawn) [I-184, Ac-PL3-Asp-Ala-B5-Asp-Glu-Ala-Ala-34FF-Val-S8-Phe-2NapA-Gln-NH2]	2.27	3.11		
CC(=O)N1CCC[C@]12CC=CCCCC1(CCCC=CCCCCCC[C@@](C)(C(=O)N[C@@H](Cc3ccccc3)C(=O)N[C@@H](Cc3c[nH]c4ccccc34)C(=O)N[C@@H](C)C(N)=O)NC(=O)[C@H](C)NC(=O)[C@H](Cc3ccccc3)NC(=O)[C@H](C)NC(=O)[C@H](C)NC(=O)[C@H](CCC(=O)O)NC(=O)[C@H](CC(=O)O)NC1=O)NC(=O)[C@H](C)NC(=O)[C@H](CC(=O)O)NC2=O (stereo partly drawn) [I-187, Ac-PL3-Asp-Ala-B5-Asp-Glu-Ala-Ala-Phe-Ala-S8-Phe-Trp-Ala-NH2]		3.32	2.083	3.32
CC(=O)N1CCC[C@]12CC=CCCCC1(CCCC=CCCCCCC[C@@](C)(C(=O)N[C@@H](Cc3ccccc3)C(=O)N[C@@H](Cc3c[nH]c4ccccc34)C(=O)N[C@@H](CCC(N)=O)C(N)=O)NC(=O)[C@H](C(C)C)NC(=O)[C@H](Cc3ccccc3)NC(=O)[C@H](C)NC(=O)[C@H](C)NC(=O)[C@H](CCC(=O)O)NC(=O)[C@H](CC(N)=O)NC1=O)NC(=O)[C@H](C)NC(=O)[C@H](CC(=O)O)NC2=O (stereo partly drawn) [I-198, Ac-PL3-Asp-Ala-B5-Asn-Glu-Ala-Ala-Phe-Val-S8-Phe-Trp-Gln-NH2]	2.37	5		
CC(=O)N1CCC[C@]12CC=CCCCC1(CCCC=CCCCCCC[C@@](C)(C(=O)N[C@@H](Cc3cccc(F)c3)C(=O)N[C@@H](Cc3c[nH]c4ccccc34)C(=O)N[C@@H](CCC(N)=O)C(N)=O)NC(=O)[C@H](C(C)C)NC(=O)[C@H](Cc3ccccc3)NC(=O)[C@H](C)NC(=O)[C@H](C)NC(=O)[C@H](CC(=O)O)NC(=O)[C@H](CC(=O)O)NC1=O)NC(=O)[C@H](C)NC(=O)[C@H](CC(=O)O)NC2=O (stereo partly drawn) [I-260, Ac-PL3-Asp-Ala-B5-Asp-Asp-Ala-Ala-Phe-Val-S8-3FF-Trp-Gln-NH2]	2.06	5		
CC(=O)N1CCC[C@]12CC=CCCCC1(CCCC=CCCCCCC[C@@](C)(C(=O)N[C@@H](Cc3ccc(F)cc3)C(=O)N[C@@H](Cc3c[nH]c4ccccc34)C(=O)N[C@@H](CCC(N)=O)C(N)=O)NC(=O)[C@H](C(C)C)NC(=O)[C@H](Cc3ccccc3)NC(=O)[C@H](C)NC(=O)[C@H](C)NC(=O)[C@H](CC(=O)O)NC(=O)[C@H](CC(=O)O)NC1=O)NC(=O)[C@H](C)NC(=O)[C@H](CC(=O)O)NC2=O (stereo partly drawn) [I-261, Ac-PL3-Asp-Ala-B5-Asp-Asp-Ala-Ala-Phe-Val-S8-4FF-Trp-Gln-NH2]	2.01	5		
CC(=O)N1CCC[C@]12CC=CCCCC1(CCCC=CCCCCCC[C@@](C)(C(=O)N[C@@H](Cc3ccccc3)C(=O)N[C@@H](Cc3c[nH]c4ccccc34)C(=O)N[C@@H](CCC(N)=O)C(N)=O)NC(=O)[C@H](C(C)C)NC(=O)[C@H](Cc3ccc(F)cc3)NC(=O)[C@H](C)NC(=O)[C@H](C)NC(=O)[C@H](CC(=O)O)NC(=O)[C@H](CC(=O)O)NC1=O)NC(=O)[C@H](C)NC(=O)[C@H](CC(=O)O)NC2=O (stereo partly drawn) [I-266, Ac-PL3-Asp-Ala-B5-Asp-Asp-Ala-Ala-4FF-Val-S8-Phe-Trp-Gln-NH2]	2.02	5		
CC(=O)N1CCC[C@]12CC=CCCCC1(CCCC=CCCCCCC[C@@](C)(C(=O)N[C@@H](Cc3ccccc3)C(=O)N[C@@H](Cc3c[nH]c4ccccc34)C(=O)N[C@@H](CCC(N)=O)C(N)=O)NC(=O)[C@H](C(C)C)NC(=O)[C@H](Cc3ccccc3)NC(=O)[C@H](C)NC(=O)[C@H](C)NC(=O)[C@H](Cc3ccccn3)NC(=O)[C@H](CC(=O)O)NC1=O)NC(=O)[C@H](C)NC(=O)[C@H](CC(=O)O)NC2=O (stereo partly drawn) [I-270, Ac-PL3-Asp-Ala-B5-Asp-2PyrA-Ala-Ala-Phe-Val-S8-Phe-Trp-Gln-NH2]	2.5	5		
CC(=O)N1CCC[C@]12CC=CCCCC1(CCCC=CCCCCCC[C@@](C)(C(=O)N[C@@H](Cc3ccccc3)C(=O)N[C@@H](Cc3c[nH]c4ccccc34)C(=O)N[C@@H](C)C(N)=O)NC(=O)[C@H](C)NC(=O)[C@H](Cc3ccccc3)NC(=O)[C@H](C)NC(=O)[C@H](C)NC(=O)[C@H](CC(=O)O)NC(=O)[C@H](CC(=O)O)NC1=O)NC(=O)[C@H](C)NC(=O)[C@H](CC(=O)O)NC2=O (stereo partly drawn) [I-286, Ac-PL3-Asp-Ala-B5-Asp-Asp-Ala-Ala-Phe-Ala-S8-Phe-Trp-Ala-NH2]	2.01	4.48		
CC(=O)N1CCC[C@]12CC=CCCCC1(CCCC=CCCCCCC[C@@](C)(C(=O)N[C@@H](Cc3ccccc3)C(=O)N[C@@H](Cc3c[nH]c4ccccc34)C(N)=O)NC(=O)[C@H](C(C)C)NC(=O)[C@H](Cc3ccccc3)NC(=O)[C@H](C)NC(=O)[C@H](C)NC(=O)[C@H](CC(=O)O)NC(=O)[C@H](CC(=O)O)NC1=O)NC(=O)[C@H](C)NC(=O)[C@H](CC(=O)O)NC2=O (stereo partly drawn) [I-290, Ac-PL3-Asp-Ala-B5-Asp-Asp-Ala-Ala-Phe-Val-S8-Phe-Trp-NH2]		3.29	2.271	3.29
CC(=O)N1CCC[C@]12CC=CCCCC1(CCCC=CCCCCCC[C@@](C)(C(=O)N[C@@H](Cc3ccccc3)C(=O)N[C@@H](Cc3c[nH]c4ccccc34)C(=O)N[C@@H](CCC(N)=O)C(N)=O)NC(=O)[C@H](C(C)C)NC(=O)[C@H](Cc3cccc(Cl)c3)NC(=O)[C@H](C)NC(=O)[C@H](C)NC(=O)[C@H](CC(=O)O)NC(=O)[C@H](CC(=O)O)NC1=O)NC(=O)[C@H](C)NC(=O)[C@H](CC(=O)O)NC2=O (stereo partly drawn) [I-307, Ac-PL3-Asp-Ala-B5-Asp-Asp-Ala-Ala-3C1F-Val-S8-Phe-Trp-Gln-NH2]		4.2	2.055	4.2
